Measurements as given in patent US20240252488A1 (KOREA RESEARCH INSTITUTE OF CHEMICAL TECHNOLOGY, priority 2020, published 2024).

How the values were obtained:
FADD−/− Jurkat cells = assay: Necroptosis inhibition assay, TNF-α-induced necroptosis (CellTiter-Glo 2.0); format: cell-based, human; conditions: TNF-α 15 ng/mL, FADD−/− Jurkat cells; for Necroptosis inhibition assay (Rescue %) 1 μM: compound 1 μM; for Necroptosis inhibition assay (Rescue %) 10 μM: compound 10 μM
Outline: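 Tested at three fixed concentrations (0.1, 1, 10 μM final) with a 30-minute room-temperature preincubation ahead of 15 ng/mL TNF-α challenge lasting 20 to 24 hours. Inhibition rate and cytotoxicity derive from ATP luminescence.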

MLKL [1] = target: T1, MLKL (Homo sapiens, UniProt Q8NB16); assay: MLKL degradation assay in HepG2 cell line (western blot); format: cell-based; parameters: endogenous in cells; host or cells: HepG2 or HaCaT; conditions: cell line not given; for Degradation assay (Degradation %) 1 μM: compound 1 μM; for Degradation assay (Degradation %) 10 μM: compound 10 μM
T1 sequence (Q8NB16 1-471): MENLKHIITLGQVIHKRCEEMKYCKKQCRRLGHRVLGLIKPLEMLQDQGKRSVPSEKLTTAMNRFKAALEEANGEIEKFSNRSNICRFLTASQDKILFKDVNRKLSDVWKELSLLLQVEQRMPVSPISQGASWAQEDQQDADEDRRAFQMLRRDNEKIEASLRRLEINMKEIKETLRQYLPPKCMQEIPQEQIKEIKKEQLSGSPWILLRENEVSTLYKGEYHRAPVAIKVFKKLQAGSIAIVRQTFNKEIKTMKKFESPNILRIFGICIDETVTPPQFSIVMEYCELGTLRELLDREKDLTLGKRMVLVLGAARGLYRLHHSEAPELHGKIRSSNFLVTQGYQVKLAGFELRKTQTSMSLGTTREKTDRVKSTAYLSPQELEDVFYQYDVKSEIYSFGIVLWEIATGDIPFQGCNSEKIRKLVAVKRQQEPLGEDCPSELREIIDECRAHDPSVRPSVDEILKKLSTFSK
Outline: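 Degradation is judged from MLKL band intensity on immunoblots of HepG2 lysates taken after 20-24 hours of compound at final 1 or 10 μM.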

MLKL [2] = target: T1, MLKL; assay: Measurement of binding affinity with MLKL receptor (competitive binding assay, Kd); parameters: made in house; host or cells: HEK 293 cell line (T7 phage in E. coli BL21-derived host is also described)
Outline: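 Kd comes from a bead-based competition format: compound-dependent loss of DNA-tagged, HEK 293-expressed MLKL capture, measured as eluate kinase by qPCR. Final DMSO is 0.9%.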

Structure (SMILES)	Degradation assay (Degradation %) 1 μM (MLKL [1])	Degradation assay (Degradation %) 10 μM (MLKL [1])	Kd (MLKL [2])	Necroptosis inhibition assay (Rescue %) 1 μM (FADD−/− Jurkat cells)	Necroptosis inhibition assay (Rescue %) 10 μM (FADD−/− Jurkat cells)
COc1ccc(C(=O)N2CCC(CN3CCC(CCN4CCC(n5cc(-c6cnc(N)c(C(=O)O[C@@H](C(=O)Nc7ccc(F)cc7)c7ccccc7)n6)cn5)CC4)CC3)CC2)cc1N1CCC(=O)NC1=O [TDH-505, (R)-2-((4-fluorophenyl)amino)-2-oxo-1-phenylethyl 3-amino-6-(1-(1-(2-(1-((1-(3-(2,4-dioxotetrahydropyrimidin-1(2H)-yl)-4-methoxybenzoyl)piperidin-4-yl)methyl)piperidin-4-yl)ethyl)piperidin-4-yl)-1H-pyrazol-4-yl)pyrazine-2-carboxylate]	90.52%	94.63%	360 pM	102.00%	76.87%
Nc1ncc(-c2cnn(C3CCN(CC4CCN(CCC5CCN(C(=O)Cc6cccc(NC7=CC(=O)N(C8CCC(=O)NC8=O)C7=O)c6)CC5)CC4)CC3)c2)nc1C(=O)O[C@@H](C(=O)Nc1ccc(F)cc1)c1ccccc1 (stereo partly drawn) [TDH-507, (R)-2-((4-fluorophenyl)amino)-2-oxo-1-phenylethyl 3-amino-6-(1-(1-((1-(2-(1-(2-(3-((1-(2,6-dioxopiperidin-3-yl)-2,5-dioxo-2,5-dihydro-1H-pyrrol-3-yl)amino)phenyl)acetyl)piperidin-4-yl)ethyl)piperidin-4-yl)methyl)piperidin-4-yl)-1H-pyrazol-4-yl)pyrazine-2-carboxylate]	82.75%	86.37%	1100 pM	26.03%	14.19%
Nc1ncc(-c2cnn(C3CCN(CCC4CCN(C5CC6(CCN(C(=O)Cc7cccc(NC8=CC(=O)N(C9CCC(=O)NC9=O)C8=O)c7)CC6)C5)CC4)CC3)c2)nc1C(=O)O[C@@H](C(=O)Nc1ccc(F)cc1)c1ccccc1 (stereo partly drawn) [TDH-509, (R)-2-((4-fluorophenyl)amino)-2-oxo-1-phenylethyl 3-amino-6-(1-(1-(2-(1-(7-(2-(3-((1-(2,6-dioxopiperidin-3-yl)-2,5-dioxo-2,5-dihydro-1H-pyrrol-3-yl)amino)phenyl)acetyl)-7-azaspiro[3.5]nonan-2-yl)piperidin-4-yl)ethyl)piperidin-4-yl)-1H-pyrazol-4-yl)pyrazine-2-carboxylate]	76.18%	73.70%	780 pM	19.06%	5.55%
Nc1ncc(-c2cnn(C3CCN(CCC4CCN(CC5CCN(C(=O)Cc6cccc(NC7=CC(=O)N(C8CCC(=O)NC8=O)C7=O)c6)CC5)CC4)CC3)c2)nc1C(=O)O[C@@H](C(=O)Nc1ccc(F)cc1)c1ccccc1 (stereo partly drawn) [TDH-510, (R)-2-((4-fluorophenyl)amino)-2-oxo-1-phenylethyl 3-amino-6-(1-(1-(2-(1-((1-(2-(3-((1-(2,6-dioxopiperidin-3-yl)-2,5-dioxo-2,5-dihydro-1H-pyrrol-3-yl)amino)phenyl)acetyl)piperidin-4-yl)methyl)piperidin-4-yl)ethyl)piperidin-4-yl)-1H-pyrazol-4-yl)pyrazine-2-carboxylate]	79.77%	84.86%	470 pM	28.63%	−91.81%
Nc1ncc(-c2cnn(C3CCN(CC4CCN(CCC5CCN(c6cc7c(cc6F)C(=O)N(C6CCC(=O)NC6=O)C7=O)CC5)CC4)CC3)c2)nc1C(=O)O[C@@H](C(=O)Nc1ccc(F)cc1)c1ccccc1 (stereo partly drawn) [TDH-513, (R)-2-((4-fluorophenyl)amino)-2-oxo-1-phenylethyl 3-amino-6-(1-(1-((1-(2-(1-(2-(2,6-dioxopiperidin-3-yl)-6-fluoro-1,3-dioxoisoindolin-5-yl)piperidin-4-yl)ethyl)piperidin-4-yl)methyl)piperidin-4-yl)-1H-pyrazol-4-yl)pyrazine-2-carboxylate]	46.49%	75.71%	3900 pM	14.47%	−61.68%
Nc1ncc(-c2cnn(C3CCN(CCC4CCN(CC5CCN(c6cc7c(cc6F)C(=O)N(C6CCC(=O)NC6=O)C7=O)CC5)CC4)CC3)c2)nc1C(=O)O[C@@H](C(=O)Nc1ccc(F)cc1)c1ccccc1 (stereo partly drawn) [TDH-514, (R)-2-((4-fluorophenyl)amino)-2-oxo-1-phenylethyl 3-amino-6-(1-(1-(2-(1-((1-(2-(2,6-dioxopiperidin-3-yl)-6-fluoro-1,3-dioxoisoindolin-5-yl)piperidin-4-yl)methyl)piperidin-4-yl)ethyl)piperidin-4-yl)-1H-pyrazol-4-yl)pyrazine-2-carboxylate]	55.53%	84.44%	900 pM	24.14%	−67.06%

Now from value to compound, other results behind:

Degradation assay (Degradation %) 1 μM (MLKL [1])	Degradation assay (Degradation %) 10 μM (MLKL [1])	Kd (MLKL [2])	Structure (SMILES)	Necroptosis inhibition assay (Rescue %) 1 μM (FADD−/− Jurkat cells)	Necroptosis inhibition assay (Rescue %) 10 μM (FADD−/− Jurkat cells)
88.53%	88.65%	600 pM	COc1ccc(C(=O)N2CCC(OCCN3CCC(CN4CCC(n5cc(-c6cnc(N)c(C(=O)O[C@@H](C(=O)Nc7ccc(F)cc7)c7ccccc7)n6)cn5)CC4)CC3)CC2)cc1N1CCC(=O)NC1=O [TDH-506, (R)-2-((4-fluorophenyl)amino)-2-oxo-1-phenylethyl 3-amino-6-(1-(1-((1-(2-((1-(3-(2,4-dioxotetrahydropyrimidin-1(2H)-yl)-4-methoxybenzoyl)piperidin-4-yl)oxy)ethyl)piperidin-4-yl)methyl)piperidin-4-yl)-1H-pyrazol-4-yl)pyrazine-2-carboxylate]	75.45%	48.09%
87.16%	90.95%	400 pM	COc1ccc(C(=O)N2CCC(C(=O)N3CCC4(CC3)CC(N3CCC(CN5CCC(n6cc(-c7cnc(N)c(C(=O)O[C@@H](C(=O)Nc8ccc(F)cc8)c8ccccc8)n7)cn6)CC5)CC3)C4)CC2)cc1N1CCC(=O)NC1=O [TDH-508, (R)-2-((4-fluorophenyl)amino)-2-oxo-1-phenylethyl 3-amino-6-(1-(1-((1-(7-(1-(3-(2,4-dioxotetrahydropyrimidin-1(2H)-yl)-4-methoxybenzoyl)piperidine-4-carbonyl)-7-azaspiro[3.5]nonan-2-yl)piperidin-4-yl)methyl)piperidin-4-yl)-1H-pyrazol-4-yl)pyrazine-2-carboxylate]	48.15%	39.79%
81.08%	91.73%	240 pM	COc1ccc(C(=O)N2CCC(C(=O)N3CCC(CN4CCC(CCN5CCC(n6cc(-c7cnc(N)c(C(=O)O[C@@H](C(=O)Nc8ccc(F)cc8)c8ccccc8)n7)cn6)CC5)CC4)CC3)CC2)cc1N1CCC(=O)NC1=O [TDH-511, (R)-2-((4-fluorophenyl)amino)-2-oxo-1-phenylethyl 3-amino-6-(1-(1-(2-(1-((1-(1-(3-(2,4-dioxotetrahydropyrimidin-1(2H)-yl)-4-methoxybenzoyl)piperidine-4-carbonyl)piperidin-4-yl)methyl)piperidin-4-yl)ethyl)piperidin-4-yl)-1H-pyrazol-4-yl)pyrazine-2-carboxylate]	32.32%	46.16%
51.41%	80.48%	740 pM	COc1ccc(C(=O)N2CCC(C(=O)N3CCC(OCCN4CCC(CN5CCC(n6cc(-c7cnc(N)c(C(=O)O[C@@H](C(=O)Nc8ccc(F)cc8)c8ccccc8)n7)cn6)CC5)CC4)CC3)CC2)cc1N1CCC(=O)NC1=O [TDH-512, (R)-2-((4-fluorophenyl)amino)-2-oxo-1-phenylethyl 3-amino-6-(1-(1-((1-(2-((1-(1-(3-(2,4-dioxotetrahydropyrimidin-1(2H)-yl)-4-methoxybenzoyl)piperidine-4-carbonyl)piperidin-4-yl)oxy)ethyl)piperidin-4-yl)methyl)piperidin-4-yl)-1H-pyrazol-4-yl)pyrazine-2-carboxylate]	24.43%	52.33%
